Measurements published in US12404304B1, “Telomerase reverse transcriptase (TERT) expression enhancing compounds and methods for using the same” (Sierra Sciences, LLC, priority 2007, dated 2025).
Like-named read-outs stand apart in the source and are kept apart here.

Columns and labels:
[1] = test system: viable cells in culture
[2] = test system: human TERT expression (hTERT mRNA); assay: Quantitative real-time RT-PCR of hTERT mRNA expression (Ct, transcripts) in compound-treated cells; format: cell-based
Method in brief: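 Read-out is cycle threshold, the cycle at which probe fluorescence released by Taq 5′-nuclease activity crosses a set level; Ct falls as hTERT mRNA rises. cDNA of treated and untreated cells was compared, with starting transcripts quantified against a known-cDNA standard curve.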

[3] = test system: viable cells in culture; assay: Cell viability assay (CellTiter-Glo Luminescent Cell Viability Assay, ATP quantitation, percent of vehicle control)

Compound	Average Cell Viability after 24 Hours (% DMSO) [1]	Average Number of hTERT Transcripts [2]	Average Cell Viability after 24 Hours (% DMSO) [3]	Average Number of hTERT Transcripts ([2]; quantitative real-time RT-PCR)
Fc1cc(F)c2c(c1)C1C=CCC1C(c1cccnc1)N2 (centres unmarked) [compound 1463]	62.06 % DMSO	174.29	–	–
O=C(NCCc1c[nH]cn1)c1cc(-c2cccs2)on1 [compound 1523]	87.71 % DMSO	513.46	–	–
Fc1cc(Br)cc2c1NC(c1cccnc1)C1CC=CC21 (centres unmarked) [compound 1457]	57.76 % DMSO	12.20	–	–
O=C(OCc1cc(=O)n2nc(C3CC3)sc2n1)c1ccc(NC(=O)c2ccco2)cc1 [compound 1452]	–	7.45	81.09 % DMSO	–
CCCCc1c(C)nn(-c2nc(C)c(C(=O)OCC)s2)c1O [compound 1129]	–	–	68.77 % DMSO	54.36
CCC(=O)Oc1cccc2ccc(/C=C/c3ccccc3Cl)nc12 [compound 1432]	–	19.46	86.95 % DMSO	–
CCOC(=O)C1=C(C)NC2=C(C(=O)CC(c3ccccc3)C2)C1c1cccc(F)c1 (centres unmarked) [compound 1244]	–	–	80.52 % DMSO	9.34
CCN(CC)c1ccc(/C=N/NC(=O)C2CC2c2ccccc2)c(O)c1 (centres unmarked) [compound 1528]	–	24.18	69.89 % DMSO	–
CC(Oc1cccc2cccnc12)C(=O)N/N=C/c1cccc2cccnc12 (centres unmarked) [compound 1291]	–	–	77.64 % DMSO	47.89
CCC(C)NC(=S)Nc1ccc([N+](=O)[O-])cc1 (centres unmarked) [compound 1375]	–	11.45	92.06 % DMSO	–
Cc1nn(C)cc1CNC(=O)C1C2CCC(O2)C1C(=O)O (centres unmarked) [compound 1220]	–	–	48.07 % DMSO	6.37
Cc1nc(-n2nc(C)c(CCC(=O)N3CCN(c4ccc(F)cc4)CC3)c2O)sc1C [compound 1136]	–	–	90.51 % DMSO	135.61
CC(=O)Nc1ccccc1NS(=O)(=O)c1cccs1 [compound 1391]	–	4.95	87.67 % DMSO	–
COCCNC(=O)c1cc(-c2cccs2)on1 [compound 1196]	–	–	98.07 % DMSO	163.15
CC(C)(C)NC(=O)NCc1nnnn1-c1ccccc1 [compound 1453]	–	11.03	97.19 % DMSO	–
O=C(NCCc1ccccc1)c1cc(-c2cccs2)on1 [compound 1185]	–	–	80.02 % DMSO	20.89
S=C(Nc1ccc(Br)cc1)Nc1cccc(Cl)c1 [compound 1344]	–	–	42.95 % DMSO	7.86
CCOC(=O)c1ccc(N2C(=O)c3[nH]nc(-c4cccs4)c3C2c2ccc(O)c(OCC)c2)cc1 (centres unmarked) [compound 1199]	–	–	57.55 % DMSO	110.78
CCOC(=O)C(=O)Nc1ccc(S(=O)(=O)N2CC(C)CC(C)C2)cc1 (centres unmarked) [compound 1445]	–	6.33	87.20 % DMSO	–
CCCCc1c(C)[nH]c2c(-c3ccc(Cl)cc3)c(C)nn2c1=O [compound 1167]	–	–	97.27 % DMSO	66.71
O=C(Cn1c(=O)oc2ccccc21)Nc1cc(Cl)ccc1Cl [compound 1429]	–	13.70	83.97 % DMSO	–
Cc1ccccc1NC(=O)C1CC(Cl)=CCC1C(=O)O (centres unmarked) [compound 1374]	–	5.48	107.65 % DMSO	–
CCCN1C(C(=O)c2ccccc2)=C(OC(=O)CC)c2ccccc2S1(=O)=O [compound 1213]	–	–	69.85 % DMSO	5.90
O=S(=O)(c1cccc(F)c1)N1CCC(Oc2ccc(-n3cnnn3)cc2)CC1 [compound 1251]	–	–	65.10 % DMSO	23.22
COC(=O)CSc1nnc(NC(=O)c2ccc(Cl)cc2)s1 [compound 1302]	–	–	70.75 % DMSO	41.43
CCCCN1C(C(=O)c2ccccc2)=C(OC(C)=O)c2ccccc2S1(=O)=O [compound 1214]	–	–	55.08 % DMSO	32.75
CC1CCc2c(sc3ncnc(N4CCCC(C)C4)c23)C1 (centres unmarked) [compound 1545]	–	4.40	43.72 % DMSO	–
Cc1[nH]c2c(-c3cccc(Br)c3)cnn2c(=O)c1Cc1ccccc1 [compound 1147]	–	–	61.72 % DMSO	29.83

Compound	Average Cell Viability after 24 Hours (% DMSO) [1]	Average Number of hTERT Transcripts [2]	Average Cell Viability after 24 Hours (% DMSO) [3]	Average Number of hTERT Transcripts ([2]; quantitative real-time RT-PCR)
COc1cc(NC(=O)CSc2ccc(-c3ccccn3)nn2)cc(OC)c1 [compound 1259]	–	–	60.54 % DMSO	10.70
O=C(CCN1C(=O)c2cccc3cccc(c23)C1=O)Nc1ccon1 [compound 1349]	–	–	76.50 % DMSO	12.52
CCOc1ccc(NC(=O)Nc2cccc(C(C)=O)c2)c([N+](=O)[O-])c1 [compound 1442]	–	7.65	84.87 % DMSO	–
c1ccc(-c2c(-c3ccccc3)n(Cc3ccco3)c3ncn4nc(-c5ccncc5)nc4c23)cc1 [compound 1304]	–	–	89.74 % DMSO	59.37
CC1CCN(C(=S)NC(=O)c2sc3ccccc3c2Cl)CC1 [compound 1422]	–	19.95	102.65 % DMSO	–
O=C(NCCc1ccncc1)c1cc(-c2cccs2)on1 [compound 1524]	–	562.51	103.34 % DMSO	–
Cc1cc(C(=O)N/N=C/c2cc(Br)ccc2O)c(C)o1 [compound 1280]	–	–	59.52 % DMSO	9.80
Oc1cc(CSc2ccc(Cl)cc2)nn1-c1ccccc1 [compound 1116]	–	–	75.26 % DMSO	102.70
COC(=O)COc1ccc2c(=O)c(Oc3ccc(-c4ccccc4)cc3)coc2c1 [compound 1400]	–	12.41	80.39 % DMSO	–
CCn1c(COc2ccc(C(C)C)cc2)nnc1SCC(=O)Nc1nccs1 [compound 1405]	–	3.33	110.82 % DMSO	–
CC(C)(C)c1cc(-c2nc3ccccc3[nH]2)c(O)c(-c2nc3ccccc3[nH]2)c1 [compound 1555]	–	52.10	90.08 % DMSO	–
O=C(c1cnn2c(C(F)(F)F)cc(-c3ccco3)nc12)N1CCCCC1 [compound 1471]	–	148.88	90.01 % DMSO	–
Cc1ccccc1NC(=O)C1CCN(S(=O)(=O)c2ccc(Br)cc2)CC1 [compound 1376]	–	4.72	88.77 % DMSO	–
COc1ccc(-c2cc(=O)n3nc(C)c(-c4ccc(F)cc4)c3[nH]2)cc1 [compound 1154]	–	–	69.15 % DMSO	48.37
O=C(NCCN1CCOCC1)c1cc(-c2cccs2)on1 [compound 1187]	–	–	95.94 % DMSO	61.19
CCCNC(=O)c1cc(-c2ccco2)on1 [compound 1190]	–	–	96.27 % DMSO	41.79
COC(=O)COc1ccc(NC(=O)CSc2ccc(Cl)cc2)cc1 [compound 1346]	–	–	56.33 % DMSO	31.23
C=CCNS(=O)(=O)c1ccc(C(=O)N2CCCCC2C)cc1 (centres unmarked) [compound 1370]	–	11.58	107.18 % DMSO	–
CC1=NN(c2ccccc2)C(=O)/C1=C\NNC(=O)c1ccccc1 [compound 1465]	–	20.29	80.62 % DMSO	–
Cc1ccc2nc(-c3ccc(NC(=S)NC(=O)CCc4ccccc4)cc3)sc2c1 [compound 1425]	–	17.07	79.15 % DMSO	–
Cc1ccc(S(=O)(=O)CC(=O)Nc2ncc(-c3ccccn3)s2)cc1 [compound 1512]	–	102.66	81.39 % DMSO	–
CCOc1cccc(/C=N/NC(=O)CNc2ccc(C)cc2)c1O [compound 1526]	–	8.14	79.56 % DMSO	–
Oc1c2c(nn1-c1nc3ccccc3s1)CCCC2 [compound 1113]	–	–	89.80 % DMSO	66.98
CC(=O)c1ccc(NC(=S)Nc2ccc(Br)c(Cl)c2)cc1 [compound 1439]	–	11.63	51.61 % DMSO	–
CCC(C)NS(=O)(=O)c1ccc(NC(=O)CN2C(=O)c3ccccc3C2=O)cc1 (centres unmarked) [compound 1431]	–	9.12	100.20 % DMSO	–
Cc1cc(C)c(S(=O)(=O)Nc2ccccc2C(=O)NCCc2ccccc2)c(C)c1 [compound 1420]	–	57.36	73.35 % DMSO	–
Cc1cccn2c(=O)cc(COc3ccc(NC(=O)c4cccs4)cc3)nc12 [compound 1454]	–	3.99	97.09 % DMSO	–
